For 68 molecules, EC50, IC50 and outcome results are on record in PubChem BioAssay AID179 (DTP/NCI, 2004).

This experiment relates to CEM cells HIV-1 protection, formazan growth assay. Description: NCI AIDS Antiviral Assay. To be noted: for pIC50: measured here: growth of uninfected CEM cells. The procedure:
The ability of compounds to protect human CEM cells from HIV-1 infection is measured as a screen for new compounds capable of inhibiting the HIV virus. Five concentrations of drug were tested on uninfected and infected cells and cell growth was measured using a soluble formazan assay. […] Compounds that provided at least 50% protection were retested. Compounds that provided at least 50% protection on retest were listed as moderately active. Compounds that reproducibly provided 100% protection were listed as confirmed active. […] Note that the inability to provide protection could be due to toxicity.

pEC50, pIC50: −log10 of the molar value. Values joined by “and” are separate entries in the source; they are usually repeats but may differ in a detail not shown here. Identical values can stand only once. Active and inactive are the calls of the source.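 The calls were made as follows: active = compounds giving half or more protection of infected cells from virus-caused growth loss, again on retest; inactive = the rest.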 Where a SMILES comes first, the peptide text is derived from it. The star is where a group is joined. Boc = CC(C)(C)OC(=O)*; OcHex = C1CCC(O*)CC1 Bounds are passed on as bounds.

As usually defined, the pEC50 is −log10 of the EC50, conventionally taken in molar units. Broadly, the pIC50 is the negative decadic logarithm of the IC50, by convention in mol/L. `Nc1ccc(-c2nc3ccccc3s2)cc1S(=O)(=O)O`: the pEC50 was below 3.70 and the pIC50 was 4.22. Consider `CC(=S)N=Cc1c(O)cc(C)oc1=O`, for which the pEC50 was below 3.70 and the pIC50 was below 3.70. As to `C1=C2/CC[C@H](Sc3ccccc3)[C@H]2C2(CCCCC/1)OCCO2`, the pEC50 is below 4.80 and the pIC50 was below 4.80. Consider `N#C/C(=C\c1cccc(Br)c1)c1nc2ccccc2c(=O)[nH]1`, for which the result was inactive. `CCC[CH2][Sn]([CH2]CCC)([O]C(=O)c1cc(OC)c(OC)cc1OC)[O]C(=O)c1cc(OC)c(OC)cc1OC`: the pEC50 was below 4.40 and the negative logarithm of the IC50 (pIC50) was 6.11. Take `CC[C@H](OCc1ccccc1)/C(C)=C/CC(C)/C=C(/C[C@]1(C)OC(=O)N2CCC[C@H]21)[Si](C)(C)C` (stereo partly drawn): the pEC50 is below 4.97 and the pIC50 was below 4.97.

For the molecule `CC1=CC(C)=Nc2ccccc2N1`, the pEC50 is below 3.70; the pIC50 was < 3.70 and 3.71. For the molecule `C[C@]12CCC3[C@@H](CC[C@@H]4/C(=N\O)C(=O)/C(=N\O)C[C@]34C)C1C/C(=N\O)C2=O` (stereo partly drawn), the result was inactive.

As to `Cc1nc2ccccc2n(CC2CCCN3CCCC[C@H]23)c1=O` (stereo partly drawn), the pEC50 was below 3.70 and the negative logarithm of the IC50 (pIC50) is below 3.70.

For `CC(=O)Nc1ccc(S(=O)(=O)N/N=C(/C)C2CCOC2=O)cc1` (stereo not drawn), the pEC50 was below 3.13 and the pIC50 was below 3.13. With `CC(C)CCC[C@@H](C)C1CCC2[C@@H]3CC=C4C[C@@H](OP(=O)(O)OCCN(C)C)CC[C@]4(C)C3CC[C@@]21C` (stereo partly drawn), the pEC50 was below 4.06 and the pIC50 was 4.93. Take `Cc1sc2[nH]c(=O)oc(=O)c2c1C`: the pEC50 was below 3.70 and the pIC50 is 4.52.

As to `Cc1cc(C23OC4COC(C)(C)OC4C2OC(C)(C)O3)nc2ccccc12` (stereo not drawn), the pEC50 was below 3.70 and the pIC50 is 3.99. Consider `CC(C)CC(NC(=O)CN)C(=O)NC(C)C(=O)NC(C)C(=O)NC(CO)C(=O)NC(C)C(N)=O` (stereo not drawn) (H-GLAASA-NH2; configuration not given here), for which the outcome was inactive. Turning to `Cn1ccc(C(=O)NCCOCCNC(=O)c2ccn(C)c(=O)c2O)c(O)c1=O`, the pEC50 was below 4.30 and the pIC50 was below 4.30.

As to `Cc1c(N(C)C)ccc2c(=O)c3cccc(CC(=O)O)c3oc12`, the pEC50 is below 3.13 and the pIC50 was 3.55. For `CC(=O)/C(=C/N1C(=O)CC(=O)NC1=S)C(=O)Nc1ccccc1C` the same measures were below 3.70 and 3.75. On to `COc1ccc(C2C(Cl)C(=O)N2NC(=O)c2ccccc2O)cc1OC` (stereo not drawn), for which the pEC50 was below 4.30 and the pIC50 was 4.38. With `c1cc(-c2ccc(-c3ccsc3)s2)cs1`, the pEC50 is below 3.70 and the pIC50 is below 3.70.

As to `CCCCCCC1OC(C(=O)OCCCC)C(C(=O)OCCCC)O1` (stereo not drawn), the pEC50 is below 3.70 and the pIC50 is below 3.70.

Take `O=c1[nH]nc(Cc2ccccc2)n1/N=C\c1ccccc1`: the pEC50 was below 3.70 and the pIC50 was below 3.70. As for `Cc1cn(C2CC3OP(=O)(C(C)(C)C#N)OCC3O2)c(=O)[nH]c1=O` (stereo not drawn), the pEC50 is below 3.15 and the pIC50 was 3.35. In the same order, the values of `COc1cc(-c2cc(-c3ccccc3)c3cc(Cl)ccc3n2)cc(OC)c1OC` are below 3.70 and below 3.70. As to `CC(C)CCCC(C)[C@H]1CC[C@H]2[C@@H]3CC[C@H]4C[C@@H](CCC=C(c5cc(Cl)c(OCc6cccc(C(=O)O)c6)c(C(=O)O)c5)c5cc(Cl)c(OCc6cccc(C(=O)O)c6)c(C(=O)O)c5)CC[C@]4(C)[C@H]3CC[C@]12C` (stereo partly drawn), the pEC50 is 5.26 and 5.75; the pIC50 was below 3.70.

For the molecule `COc1cccc(N2C(=O)C3c4[nH]c5ccccc5c4C4CCCC4C3C2=O)c1` (stereo not drawn), the pEC50 was below 3.70 and the pIC50 was below 3.70.

In the case of `CC1(C)NNC(=S)NC1=O`, the pEC50 was below 2.80 and the pIC50 was below 2.80.

In the case of `COc1cccc(CCNC(=O)Cc2ccccc2CCO)c1`, the pEC50 is below 3.70 and the pIC50 is below 3.70. Consider `Oc1ccc2ccccc2c1OCc1nnc(CCCCCCCCc2nnc(COc3c(O)ccc4ccccc34)n2Nc2ccccc2)n1Nc1ccccc1`, for which the pEC50 is below 5.70 and the pIC50 was below 5.70. Regarding `O=C(Nc1nc(C23CC4CC(CC(C4)C2)C3)cs1)c1cc2c(ccc3ccccc32)oc1=O`, the pEC50 was below 3.70 and the pIC50 is below 3.70. For `Fc1ccc2nncc(SCc3ccc(Cl)c(Cl)c3)c2c1`, the pEC50 was below 4.10 and the pIC50 is below 4.10. Take `OCCOCCO[P+]1(OCCOCCO)n2c3ccc2C(c2ccccc2)=C2C=CC(=N2)C(c2ccccc2)=c2ccc(n21)=C(c1ccccc1)C1=NC(=C3c2ccccc2)C=C1`: the pEC50 is below 4.00 and the pIC50 is 7.10. In the same order, the values of `O=C1CCC2SC1CCC2=O` are below 3.70 and below 3.70. In the same order, the values of `COC(=O)C1=C(C)C(=O)[C@H]2C(C(=O)OC)CCCC[C@@H]12` (stereo partly drawn) are below 3.70 and 3.89. In the same order, the values of `CN(C)CCNC(=O)c1nn(-c2ccccc2)c2c1CSc1ccccc1-2` are below 3.70 and 3.96. Consider `O=S(=O)(c1ccccc1)[C@H]1[C@@H]2O[C@@H]2C[C@@H]1O`, for which the pEC50 is below 2.98 and the pIC50 was 4.26. As for `Cc1nn(C(=O)CC(=O)Nc2ccc(Cl)cc2)c(C)c1N=Nc1ccccc1F`, the result was inactive.

Regarding `O=C1NC(N2CCOCC2)=N/C1=C\c1ccco1`, the pEC50 was below 3.70 and the pIC50 is below 3.70. For `N#CCC(=O)N/N=C1/C(=O)N(c2cc(Cl)ccc2Cl)C(=O)C(=O)C1c1nc2ccccc2s1` (stereo not drawn), the outcome was inactive. Turning to `COC(=O)C(=O)/C(=C\N1C(=O)CC(=O)NC1=S)C(=O)c1ccc([N+](=O)[O-])cc1`, the pEC50 was below 3.70 and the pIC50 was below 3.70.

As for `COc1ccc(C(=O)C(C(=O)C(=O)Nc2ccc(Cl)c(Cl)c2)c2ccc(OC)cc2)cc1` (stereo not drawn), the pEC50 was below 4.12 and the pIC50 was below 4.12. For the molecule `CCN(CC)CCN1C(=O)C2C3C=CC(C2C1=O)C1C2C(=O)N(CCN(CC)CC)C(=O)C2C31` (stereo not drawn), the pEC50 was below 3.70 and the pIC50 is below 3.70. With `COc1cccc2c1-c1nc(N)c3c(OC)cccc3c1C2=O`, the pEC50 is 4.13 and the pIC50 is below 3.70. For the molecule `COC(=O)C1=CCC2c3[nH]c4ccccc4c3CCN2C1` (stereo not drawn), the pEC50 was below 4.04 and the pIC50 was below 4.04.

Turning to `O=C1/C(=N\S(=O)(=O)c2ccccc2)C([n+]2ccc(Cc3ccccc3)cc2)=C([O-])c2ccccc21`, the pEC50 was below 3.70 and the pIC50 is 5.58. For `CN1CC(=O)NC2C(=CN(Cc3ccccc3)c3ccccc32)C1=O` (stereo not drawn) the same measures were below 3.70 and below 3.70. For the molecule `CC(C)CC(NC(=O)OC(C)(C)C)C(=O)NC(CCC(=O)OC1CCCCC1)C(N)=O` (stereo not drawn) (Boc-Leu-Glu(OcHex)-NH2; configuration not given here), the pEC50 was below 3.70 and the negative logarithm of the IC50 (pIC50) was 3.90. On to `OCC(CO)c1cnnc2ccccc12`, for which the pEC50 is below 3.28 and the pIC50 was below 3.28. On to `OC(c1cccs1)c1cc2ccccc2s1` (stereo not drawn), for which the pEC50 was below 3.70 and the pIC50 was 3.93. For `CCC[CH2][Sn]([CH2]CCC)([O]C(=O)c1cc(OC)c(OC)c(OC)c1)[O]C(=O)c1cc(OC)c(OC)c(OC)c1` the same measures were below 4.96 and 5.84. For `O=C1NC(=O)c2c1c1cnn(-c3ccccc3)c1n1cccc21` the same measures were below 4.13 and below 4.13. On to `CNC(=O)c1[nH]cnc1/N=N/N(C)N`, for which the pEC50 was below 3.70 and the negative-log IC50 (pIC50) is 3.74.

Consider `OCCCN1CCCC12CCCCC2`, for which the pEC50 was below 3.70 and the pIC50 was below 3.70. As to `CCC1(N=[N+]=[N-])C(=O)c2ccccc2N(C)C1=O` (stereo not drawn), the pEC50 is below 3.70 and the pIC50 was below 3.70. As for `Cc1ccc(N=Nc2c(N)nn3cc4c(nc23)-c2ccccc2CC4)cc1`, the pEC50 was below 4.00 and the pIC50 is below 4.00. For the molecule `O=C(Nc1ccc(Cl)cc1C(F)(F)F)C(=O)Nn1c(=S)[nH]c2ccccc2c1=O`, the pEC50 is below 3.82 and the negative-log IC50 (pIC50) is below 3.82.

With `NC(=O)CNC(=O)c1ccccc1SC(=O)CC[n+]1ccccc1`, the pEC50 was below 3.70 and the pIC50 is 3.99. For `CC(C)[C@H]1CO[C@@H]2O[C@H](C)CC(=O)N21` the same measures were below 2.90 and below 2.90. For `N#Cc1c(N2CCCC2)ncn(-c2ccccc2)c1=O`, the pEC50 was below 3.70 and the pIC50 is below 3.70. For the molecule `O=C1N/C(=C\c2ccccc2)C(=O)N1CN1CCCC1`, the pEC50 is below 3.70 and the pIC50 was 3.94.

`NNC(=O)/C(NC(=O)c1ccccc1)=C(\N)c1ccc(Cl)cc1`: the pEC50 is below 3.55 and the pIC50 was 3.79. In the same order, the values of `Cc1noc2c1CSC1=C2S(=O)(=O)N(C)c2ccccc21` are below 4.23 and below 4.23. On to `O=C(/C=C/c1ccccc1)c1cc(CN2CCOCC2)c(O)c(CN2CCOCC2)c1`, for which the pEC50 is below 3.70 and the pIC50 was 5.07.

Regarding `CC1CN=C(NCc2ccccc2)S1` (stereo not drawn), the pEC50 was below 3.70 and the pIC50 is below 3.70. Consider `NC(=O)C(=CNC(=S)c1ccncc1)C(N)=O`, for which the pEC50 is below 3.70 and the pIC50 is below 3.70.

On to `COc1ccc(Br)c(N/N=C2\CCCNC2=O)c1`, for which the outcome was inactive. Still for that read-out and setting: the entry for `O=C1C=C(N2CCOCC2)c2cc(N3CCOCC3)ncc2C1=O` is “inactive”. With `CC(C)(C)C(=O)N1C(C(=O)O)Cc2ccccc2[C@@H]1Cc1ccccc1` (stereo partly drawn), the pEC50 was below 4.13 and the pIC50 is below 4.13.

With `CCOC(=O)c1ccc(N2C(=O)Cc3ccccc3C2=O)cc1`, the result was inactive.
